Measurements published in ChEMBL document CHEMBL1201862, “PubChem BioAssay data set” (2004).
Active and inactive are the calls of the source.

How the values were obtained:
HEK293 [1] = test: cells; type: functional, cell-based; conditions: Homo sapiens
HEK293 [2] = test: cells; type: functional, cell-based; conditions: Homo sapiens; remark: listed apart in the source
[3] = target: Nucleotide-binding oligomerization domain-containing protein 2 (Homo sapiens, UniProt Q9HC29); test: inhibition of NOD2-driven NF-kB reporter – cell-based, luminescence, uHTS, HEK293 (AID 1566); type: functional
HEK293 [4] = test: cells; type: functional, cell-based; conditions: Homo sapiens; remark: listed apart in the source
HEK293 [5] = test: inhibition of NOD1-driven NF-kB reporter – cell-based, luminescence, uHTS, primary screen (AID 1578); type: functional; conditions: Homo sapiens
HEK293 [6] = test: NOD2 signaling inhibitors in MDP-stimulated cells, cell-based, uHTS, luminescence (AID 2001); type: functional; conditions: Homo sapiens
[7] = target: T1, Microphthalmia-associated transcription factor (Homo sapiens, UniProt O75030); test: reducers of TRPM1 reporter luminescence, concentration series – cell-based, SK-MEL-5, cherry-picked, set 3, MITF inhibitor project, dose response (AID 493073); type: functional;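 also: SK-MEL-5 melanoma cells with luciferase driven by the MITF target TRPM1 promoter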
T1 sequence (O75030 whole entry): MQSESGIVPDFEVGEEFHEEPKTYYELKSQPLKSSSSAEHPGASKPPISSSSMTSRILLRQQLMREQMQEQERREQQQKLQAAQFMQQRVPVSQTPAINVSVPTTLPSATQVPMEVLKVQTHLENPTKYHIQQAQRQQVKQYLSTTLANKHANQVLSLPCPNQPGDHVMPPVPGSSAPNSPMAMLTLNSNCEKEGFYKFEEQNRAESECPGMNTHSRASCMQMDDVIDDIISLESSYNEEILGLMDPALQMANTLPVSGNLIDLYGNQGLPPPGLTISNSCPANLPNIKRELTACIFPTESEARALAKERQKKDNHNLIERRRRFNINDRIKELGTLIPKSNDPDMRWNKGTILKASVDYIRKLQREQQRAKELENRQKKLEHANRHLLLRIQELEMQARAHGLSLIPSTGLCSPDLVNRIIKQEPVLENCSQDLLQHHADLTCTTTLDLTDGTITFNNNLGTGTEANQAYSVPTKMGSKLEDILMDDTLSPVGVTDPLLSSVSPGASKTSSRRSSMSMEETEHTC

[8] = HEK-293T cell viability reduction – luminescence, B-cell screen hits, cytotoxicity control for BCR NF-kB inhibitor project, dose response (AID 489021); type: functional, cell-based;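 also: HEK-293T cells carrying an NF-kB luciferase reporter; cells exposed to compound for about 14 hours before viability readout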
Vero [9] = test: cells; type: functional, cell-based; conditions: Chlorocebus sabaeus
Vero [10] = test: cells; type: functional; conditions: Chlorocebus sabaeus
[11] = viability of HCT116 lacking mutant beta-catenin – cell-based, human colon tumor, dose response (AID 1045); type: functional;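 also: HCT116 colon tumor cells with beta catenin knocked out; cells exposed to compound for 60 hours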
[12] = viability of PTEN-deleted HCT116 cells – cell-based, HCT116 PTEN knockout, dose response (AID 1047); type: functional;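 also: HCT116 colon tumor cells with PTEN knocked out; cells exposed to compound for 60 hours before readout; potency for loss of cell viability measured by luminescence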
[13] = target: T2, Voltage-gated N-type calcium channel alpha-1B subunit/Amyloid beta A4 precursor protein-binding family A member 1 (Homo sapiens, UniProt Q00975+Q02410); type: protein assay
[14] = target: T2, Voltage-gated N-type calcium channel alpha-1B subunit/Amyloid beta A4 precursor protein-binding family A member 1; type: protein assay; remark: listed apart in the source
Cytochrome P450 2D6 = Cytochrome P450 2D6 (Homo sapiens, UniProt P10635);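 also: CYP2D6 member of a cytochrome P450 panel assay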
Cytochrome P450 3A4 = Cytochrome P450 3A4 (Homo sapiens, UniProt P08684);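 also: CYP3A4 tested as one member of a cytochrome P450 panel screen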
[15] = test system: Streptococcus sp. 'group A'; test: Streptococcus pyogenes SK(-)GAS viability under kanamycin – luminescence, BacTiterGlo, confirmation, counter-screen for streptokinase expression inhibitor project, dose response (AID 1900); type: functional, organism-based
INS1 = test: INS-1E survival protection against cytokine death – cell-based, luminescence, retest, dose response (AID 449756); type: functional; conditions: Rattus norvegicus;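 also: cell death triggered by IL-1 beta plus TNF-alpha plus IFN-gamma mixture; protective hits raise ATP signal compared with cytokine alone wells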
[16] = decrease of insulin promoter-GFP reporter – imaging, high-content screening, mouse beta cells (AID 1628); type: functional; conditions: MIN6
cells [17] = type: functional, cell-based
Streptococcus = test: GAS UMAA2166 growth inhibition – luminescence, BacTiterGlo, counter-screen for streptokinase expression inhibitor project, dose response (AID 1915); type: functional, organism-based;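 also: potency for reduction of bacterial viability or growth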
[18] = Luminescence Cell-Based Dose Retest to Confirm Inhibitors of Cancer Stem Cells. [Related pubchem assays (depositor defined):AID2717, AID2721]; type: functional; conditions: Homo sapiens
cells [19] = type: functional, cell-based; remark: listed apart in the source
[20] = NIH3T3 cell viability loss – ATP luminescence, mouse fibroblasts, counter-screen, dose response (AID 2010); type: functional, cell-based;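 also: cells exposed to compound for about 90 hours before reading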
[21] = MIN6 cell viability loss – mouse insulinoma, cytotoxicity control, dose response (AID 2122); type: functional;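 also: confirmatory high-throughput counterscreen run to flag cytotoxic compounds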
[22] = Trypanosoma cruzi growth suppression in host cells – NIH3T3 host cells, beta-gal luminescence, confirmation (AID 2044); type: functional, cell-based;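 also: intracellular parasites grown in NIH/3T3 mouse fibroblasts as host cells; luminescent beta-galactosidase reporter signal from transgenic T. cruzi replicating inside host cells; inhibitors lower the luminescence signal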

Chain of Cytochrome P450 3A4 (P08684 whole entry): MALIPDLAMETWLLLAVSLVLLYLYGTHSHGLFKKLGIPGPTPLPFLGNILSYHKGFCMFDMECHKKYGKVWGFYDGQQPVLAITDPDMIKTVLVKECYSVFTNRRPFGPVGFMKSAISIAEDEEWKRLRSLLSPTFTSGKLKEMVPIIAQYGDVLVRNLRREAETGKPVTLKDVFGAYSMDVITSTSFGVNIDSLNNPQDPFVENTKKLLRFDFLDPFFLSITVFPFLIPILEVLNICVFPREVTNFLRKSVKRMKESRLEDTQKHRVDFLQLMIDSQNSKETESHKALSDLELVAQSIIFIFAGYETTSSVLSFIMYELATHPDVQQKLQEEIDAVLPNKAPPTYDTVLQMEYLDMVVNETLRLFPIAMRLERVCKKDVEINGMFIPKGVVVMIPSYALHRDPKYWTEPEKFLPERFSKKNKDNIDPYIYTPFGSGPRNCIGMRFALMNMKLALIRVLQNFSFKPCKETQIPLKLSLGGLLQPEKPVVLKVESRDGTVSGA
T2 sequence (Q00975 whole entry): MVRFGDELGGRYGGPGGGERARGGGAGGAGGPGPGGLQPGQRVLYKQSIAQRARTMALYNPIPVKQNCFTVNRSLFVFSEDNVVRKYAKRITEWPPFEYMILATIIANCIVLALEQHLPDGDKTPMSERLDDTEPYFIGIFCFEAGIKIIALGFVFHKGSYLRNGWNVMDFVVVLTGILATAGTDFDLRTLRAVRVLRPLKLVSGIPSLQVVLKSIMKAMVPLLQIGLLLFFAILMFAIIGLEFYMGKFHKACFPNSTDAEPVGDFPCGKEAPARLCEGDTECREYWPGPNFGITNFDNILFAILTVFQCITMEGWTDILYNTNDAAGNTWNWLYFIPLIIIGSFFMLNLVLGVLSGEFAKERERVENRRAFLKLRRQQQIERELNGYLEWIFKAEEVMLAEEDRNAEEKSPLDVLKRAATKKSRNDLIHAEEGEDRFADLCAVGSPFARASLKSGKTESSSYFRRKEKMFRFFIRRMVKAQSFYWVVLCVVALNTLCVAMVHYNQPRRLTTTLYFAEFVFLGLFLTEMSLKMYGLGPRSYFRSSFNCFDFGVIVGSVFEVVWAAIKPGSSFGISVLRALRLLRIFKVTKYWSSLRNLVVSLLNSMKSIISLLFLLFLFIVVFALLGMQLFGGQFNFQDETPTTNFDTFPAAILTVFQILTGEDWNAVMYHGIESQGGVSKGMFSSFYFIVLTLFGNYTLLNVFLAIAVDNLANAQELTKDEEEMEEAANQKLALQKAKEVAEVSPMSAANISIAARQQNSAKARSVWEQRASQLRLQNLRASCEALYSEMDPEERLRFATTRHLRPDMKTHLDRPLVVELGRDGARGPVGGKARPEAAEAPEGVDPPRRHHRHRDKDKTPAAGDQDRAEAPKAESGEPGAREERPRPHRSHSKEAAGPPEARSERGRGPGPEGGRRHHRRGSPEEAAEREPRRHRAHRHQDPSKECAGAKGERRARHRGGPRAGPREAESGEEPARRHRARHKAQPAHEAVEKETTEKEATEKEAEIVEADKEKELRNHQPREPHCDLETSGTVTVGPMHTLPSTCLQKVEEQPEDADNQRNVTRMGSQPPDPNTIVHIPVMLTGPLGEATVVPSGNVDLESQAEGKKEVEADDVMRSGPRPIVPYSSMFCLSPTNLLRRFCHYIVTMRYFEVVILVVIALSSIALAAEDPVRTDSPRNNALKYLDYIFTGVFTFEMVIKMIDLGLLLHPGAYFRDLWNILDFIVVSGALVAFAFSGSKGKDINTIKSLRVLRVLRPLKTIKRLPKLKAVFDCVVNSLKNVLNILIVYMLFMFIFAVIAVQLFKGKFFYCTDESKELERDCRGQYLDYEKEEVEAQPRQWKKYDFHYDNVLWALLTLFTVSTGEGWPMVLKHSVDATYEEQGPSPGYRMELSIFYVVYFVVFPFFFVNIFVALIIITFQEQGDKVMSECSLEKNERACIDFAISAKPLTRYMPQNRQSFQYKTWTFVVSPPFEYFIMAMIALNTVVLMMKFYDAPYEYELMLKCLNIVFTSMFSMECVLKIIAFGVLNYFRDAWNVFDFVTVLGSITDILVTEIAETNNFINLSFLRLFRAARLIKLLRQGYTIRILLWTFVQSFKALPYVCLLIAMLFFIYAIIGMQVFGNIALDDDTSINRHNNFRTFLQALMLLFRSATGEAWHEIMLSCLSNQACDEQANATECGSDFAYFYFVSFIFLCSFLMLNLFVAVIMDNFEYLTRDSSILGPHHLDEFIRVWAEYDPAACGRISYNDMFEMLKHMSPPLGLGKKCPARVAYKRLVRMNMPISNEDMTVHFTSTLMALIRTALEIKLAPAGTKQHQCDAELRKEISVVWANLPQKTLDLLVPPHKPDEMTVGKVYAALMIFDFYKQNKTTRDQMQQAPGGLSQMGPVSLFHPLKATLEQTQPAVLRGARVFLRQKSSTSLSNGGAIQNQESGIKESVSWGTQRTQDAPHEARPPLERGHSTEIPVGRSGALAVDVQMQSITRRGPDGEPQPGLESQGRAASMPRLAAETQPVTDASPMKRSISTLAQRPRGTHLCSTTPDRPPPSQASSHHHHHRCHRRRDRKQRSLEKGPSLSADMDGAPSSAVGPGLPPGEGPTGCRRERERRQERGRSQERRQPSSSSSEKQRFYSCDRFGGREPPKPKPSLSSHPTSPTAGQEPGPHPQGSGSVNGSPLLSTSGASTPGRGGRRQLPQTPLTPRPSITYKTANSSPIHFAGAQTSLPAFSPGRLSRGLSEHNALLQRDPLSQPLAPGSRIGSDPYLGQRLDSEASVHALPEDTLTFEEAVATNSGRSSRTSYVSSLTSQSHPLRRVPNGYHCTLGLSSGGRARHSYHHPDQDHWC
T2 sequence (Q02410 whole entry): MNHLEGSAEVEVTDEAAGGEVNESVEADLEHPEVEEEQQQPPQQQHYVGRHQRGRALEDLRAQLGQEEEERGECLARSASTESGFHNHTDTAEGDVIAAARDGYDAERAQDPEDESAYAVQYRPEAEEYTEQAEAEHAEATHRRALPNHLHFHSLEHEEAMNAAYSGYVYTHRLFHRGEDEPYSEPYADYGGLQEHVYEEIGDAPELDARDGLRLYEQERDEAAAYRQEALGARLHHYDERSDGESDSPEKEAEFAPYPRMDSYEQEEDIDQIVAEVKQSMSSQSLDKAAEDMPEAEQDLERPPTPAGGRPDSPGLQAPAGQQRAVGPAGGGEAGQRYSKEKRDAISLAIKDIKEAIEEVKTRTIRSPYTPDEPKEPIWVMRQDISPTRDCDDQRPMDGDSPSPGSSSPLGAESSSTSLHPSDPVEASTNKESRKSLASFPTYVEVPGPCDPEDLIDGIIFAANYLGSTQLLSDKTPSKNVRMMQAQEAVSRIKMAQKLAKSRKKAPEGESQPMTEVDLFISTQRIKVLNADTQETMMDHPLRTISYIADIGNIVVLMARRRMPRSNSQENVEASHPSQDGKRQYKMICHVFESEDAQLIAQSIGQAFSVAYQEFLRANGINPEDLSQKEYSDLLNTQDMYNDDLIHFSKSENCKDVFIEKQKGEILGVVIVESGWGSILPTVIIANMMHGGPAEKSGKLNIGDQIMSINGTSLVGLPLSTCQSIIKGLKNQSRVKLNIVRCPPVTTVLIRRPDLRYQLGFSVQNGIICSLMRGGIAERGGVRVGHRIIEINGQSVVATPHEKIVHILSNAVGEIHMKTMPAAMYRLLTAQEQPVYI
Chain of Nucleotide-binding oligomerization domain-containing protein 2 (Q9HC29 whole entry, the tested form may be a part): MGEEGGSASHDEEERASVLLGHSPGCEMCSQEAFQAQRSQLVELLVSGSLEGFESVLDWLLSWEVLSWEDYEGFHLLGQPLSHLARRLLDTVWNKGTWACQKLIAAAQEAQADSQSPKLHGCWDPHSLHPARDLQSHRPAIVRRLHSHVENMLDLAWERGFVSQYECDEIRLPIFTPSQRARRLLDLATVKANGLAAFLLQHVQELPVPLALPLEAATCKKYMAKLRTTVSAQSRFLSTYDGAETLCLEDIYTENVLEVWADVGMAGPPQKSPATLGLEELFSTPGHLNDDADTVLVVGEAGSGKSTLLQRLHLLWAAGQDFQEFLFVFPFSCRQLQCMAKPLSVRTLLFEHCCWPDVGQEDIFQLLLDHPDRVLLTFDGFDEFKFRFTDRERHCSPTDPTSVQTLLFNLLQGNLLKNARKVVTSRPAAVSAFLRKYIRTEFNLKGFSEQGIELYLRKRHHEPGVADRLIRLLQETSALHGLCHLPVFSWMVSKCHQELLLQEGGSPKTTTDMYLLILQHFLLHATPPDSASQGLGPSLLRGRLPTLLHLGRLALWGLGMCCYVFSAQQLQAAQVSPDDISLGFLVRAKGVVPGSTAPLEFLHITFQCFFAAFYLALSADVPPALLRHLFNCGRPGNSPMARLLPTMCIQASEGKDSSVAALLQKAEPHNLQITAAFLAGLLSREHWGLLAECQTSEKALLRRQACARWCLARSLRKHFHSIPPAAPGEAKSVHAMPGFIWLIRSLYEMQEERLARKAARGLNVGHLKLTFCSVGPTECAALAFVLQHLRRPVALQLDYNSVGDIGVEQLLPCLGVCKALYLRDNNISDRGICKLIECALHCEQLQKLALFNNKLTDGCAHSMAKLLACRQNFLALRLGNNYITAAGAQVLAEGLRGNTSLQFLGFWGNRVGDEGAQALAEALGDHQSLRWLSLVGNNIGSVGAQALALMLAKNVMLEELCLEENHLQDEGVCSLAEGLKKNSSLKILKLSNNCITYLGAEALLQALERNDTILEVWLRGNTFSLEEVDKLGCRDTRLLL

COc1ccc(/C=C2\SC(=S)N(CCCC(=O)NNC(=O)c3ccccc3O)C2=O)cc1
IC50 (HEK293 [1]): > 20 µM (inactive)
IC50 (HEK293 [2]): > 20 µM (inactive)
EC50 [3]: > 20 µM (inactive)
IC50 (HEK293 [4]): 5.39 µM (active)
EC50 (HEK293 [5]): 8.29 µM (active)
IC50 (HEK293 [6]): 5.62 µM (active)
AC50 [7]: 1.38 µM (active)
IC50 [8]: > 80 µM (inactive)

Cc1ccc(NC(=O)c2cc(=O)c3ccccc3o2)cc1S(=O)(=O)N1CCCCC1
IC50 (HEK293 [1]): > 20 µM (inactive)
IC50 (HEK293 [2]): > 20 µM (inactive)
EC50 [3]: > 20 µM (inactive)
EC50 (HEK293 [5]): 8.74 µM (active)
IC50 (HEK293 [6]): 9.78 µM (active)

CC(C)c1ccc(/C=C2\SC(=S)N(CCC(=O)N3CCCCC3CCO)C2=O)cc1 (stereo not given)
AC50 [7]: 7.43 µM (active)
IC50 [8]: 72.4 µM (inactive)

CC(C)N1C/C(=C/c2ccsc2)C(=O)/C(=C/c2ccsc2)C1
IC50 (Vero [9]): > 25 µM (active)
CC50 (Vero [10]): 5.33 µM (active)
EC50 [11]: 1.34 µM (active)
EC50 [12]: 1.39 µM (active)

C=CCn1c(SCC(=O)c2cccs2)nc2sc(C)c(C)c2c1=O
IC50 (Vero [9]): 24.8 µM (active)

Cc1ccc(-c2nn(-c3ccccc3)cc2/C=C/C(=O)O)o1
IC50 [13]: 17.6 µM (active)
IC50 [14]: 30.9 µM (active)

Clc1ccccc1-c1cc(NCc2ccccc2)ncn1
AC50 (Cytochrome P450 2D6): 20 µM (inconclusive)
AC50 (Cytochrome P450 3A4): inconclusive

CS(=O)(=O)Nc1ccc(S(=O)(=O)N2CCOCC2)cc1
AC50 (Cytochrome P450 3A4): inconclusive

O=C(N/N=C/c1cc(Br)ccc1O)C(=O)Nc1ccccc1OC(F)(F)C(F)F
EC50 [15]: 0.866 µM (active)
AC50 (INS1): 2.17 µM (active)
IC50 [16]: 1.93 µM (active)
EC50 (cells [17]): 10.9 µM (active)
EC50 (Streptococcus): 1.82 µM (active)
AC50 [18]: 1.62 µM (active)
EC50 (cells [19]): > 350 µM (not active)
EC50 [20]: 8.61 µM (active)
IC50 [21]: 2.22 µM (active)
EC50 [22]: 0.572 µM (active)
